Patent publication US6583177B2, “Leukotriene B4 antagonist compounds and method for treatment” (Ono Pharmaceutical Co., Ltd., priority 1994, dated 2003)
Like-named read-outs stand apart in the source and are kept apart here.

Key:
LTB4 receptor = biological target: T1, LTB4 receptor (Homo sapiens, UniProt Q15722); experiment: Binding inhibition against 3H-LTB4 on the human polymorphonuclear leukocyte (PMN); details: percentage of inhibition of specific 3H-LTB4 (4nM) binding to human PMN, 0° C. for 20 min
T1 construct: The reaction was started by addition of a thoroughly mixed PMN cell suspension (1.6×10^6 cells); endogenous in cells; host or cells: human polymorphonuclear leukocytes (PMN), whole-cell suspension
Protocol: Binding Inhibition Against ^3H-LTB4 on the Human Polymorphonuclear Leukocyte (PMN)
0.049 ml Hanks balanced salt solution (HBSS), 0.001 ml test compound and 0.05 ml ^3H-LTB4 (4nM) were added to polypropylene tubes and mixed. The reaction was started by addition of a thoroughly mixed PMN cell suspension (1.6×10^6 cells), followed by incubation at 0° C. for 20 min. The reaction was terminated by the addition of ice-cold HBSS (2.5 ml). PMNs were harvested by vacuum filtration through Whatman GF/C glass fiber filters on a Brandel cell harvester (BRANDEL, M-24R). The filters were then washed 2 times to remove free ^3H-LTB4 with 2.5 ml of the ice-cold PBS (−) solution. The filters were transferred to each vial, and equilibrated after adding 8 ml ACS II cocktail (Amersham). The radioactivity was measured by liquid scintillation counter (Aloka, LSC-5100).
Specific binding of ^3H-LTB4 to the LTB4 receptor was defined as total binding minus nonspecific binding. Nonspecific binding was the amount of ^3H-LTB4 binding in the presence of 1.5 μM LTB4 instead of the test compound. The inhibitory effect of test compound was calculated from the following equation.
The percentage of inhibition (%)=100−(B1/B0×100)
B1: Specific ^3H-LTB4 binding in presence of test compound
B0: Specific ^3H-LTB4 binding in absence of test compound
The compounds of the formula (IB), of the present invention have an antagonistic activity on LTB4. The results which are measured by method as hereinbefore described in Example 1(A), are shown the following Table 18.

[1] = biological target: T2, trypsin (derived from bovine pancreas) (Bos taurus, UniProt P00760); experiment: Inhibitory activity on trypsin; assay type: biochemical
T2 construct: a solution of 80 mU/ml trypsin (derived from bovine pancreas) (50 μl); from tissue; host or cells: bovine pancreas
T2 sequence (P00760 24-246): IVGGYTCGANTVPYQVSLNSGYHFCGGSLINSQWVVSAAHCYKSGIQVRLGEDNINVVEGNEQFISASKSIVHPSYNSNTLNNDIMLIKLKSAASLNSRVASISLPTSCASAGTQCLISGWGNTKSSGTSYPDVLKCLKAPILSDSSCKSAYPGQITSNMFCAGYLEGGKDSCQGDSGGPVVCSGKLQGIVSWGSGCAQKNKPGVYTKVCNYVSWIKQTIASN
Protocol: (2) Inhibitory Activity on Trypsin
To a mixture of a 0.2 M HEPES.sodium hydroxide buffer solution (pH 8.0, 100 μl) and distilled water (640 μl), were added a test compound in various concentration or water (10 μl), and a solution of 80 mU/ml trypsin (derived from bovine pancreas) (50 μl) and then the mixture was preincubated for one minute at 30° C. To the solution thus obtained was added 2.5 mM BAPNA (200 μl) and the mixture was incubated at 30° C. The absorbance at 405 nm was measured. Percentage (%) of the absorbance in the presence of a test compound was calculated when the absorbance in the absence thereof was regarded as 100%, and therefrom IC50 value was calculated.
HEPES represents 4-2-hydroxyethyl)-1-piperazineethanesulfonic acid, and
BAPNA represents α-N-benzoyl-DL-arginine-p-nitroanilide hydrochloride.

[2] = biological target: T3, PLA2 (derived from hog pancreas) (Sus scrofa, UniProt P00592); experiment: Inhibitory activity on PLA2; assay type: biochemical; details: hog pancreas PLA2, 10PY-PC substrate, fluorescence, pH7.5
T3 construct: a solution of 10 mU/ml PLA2 (derived from hog pancreas) (50 μl); from tissue; host or cells: hog pancreas
Protocol: (1) Inhibitory Activity on PLA2
A reaction solution including 50 mM tris-HCl buffer (pH7.5, 874 μl; containing 100 mM sodium chloride, 1 mM EDTA), 1M calciumchloride (6 μl), 1% bovine serum albumin (10 μl) and 2.5 mM 10PY-PC (10 μl), was prepared. To the solution were added a test compound in various concentration or water (50 μl), and a solution of 10 mU/ml PLA2 (derived from hog pancreas) (50 μl). The appearance of fluorescence was measured (Ex=345 nm, Em=396 nm). Percentage (%) of the strength of fluorescence in the presence of a test compound was calculated when the strength of that in the absence thereof was regarded as 100%, and therefrom IC50 value was calculated.
10PY-PC represents 3′-palmitoyl-2-(1-pyrenedecanoyl)-L-α-phosphatidylcholine, […]

[3] = formula (IA) compounds, Table 17
[4] = formula (IB) compounds, Table 18
[5] = bovine pancreas trypsin, BAPNA substrate, 30° C., pH 8.0, read-out: inhibitory activity on trypsin IC50

T1 sequence (Q15722 whole entry): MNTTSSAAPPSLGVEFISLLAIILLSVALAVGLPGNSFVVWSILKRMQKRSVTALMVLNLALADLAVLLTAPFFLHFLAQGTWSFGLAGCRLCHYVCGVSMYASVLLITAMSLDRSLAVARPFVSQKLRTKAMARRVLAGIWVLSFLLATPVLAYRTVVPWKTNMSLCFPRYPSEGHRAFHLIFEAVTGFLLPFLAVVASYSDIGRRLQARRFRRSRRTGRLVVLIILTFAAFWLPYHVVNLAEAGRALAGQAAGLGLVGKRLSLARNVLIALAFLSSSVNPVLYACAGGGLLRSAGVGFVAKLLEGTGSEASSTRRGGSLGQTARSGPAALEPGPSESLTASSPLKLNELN
T3 sequence (P00592 23-146): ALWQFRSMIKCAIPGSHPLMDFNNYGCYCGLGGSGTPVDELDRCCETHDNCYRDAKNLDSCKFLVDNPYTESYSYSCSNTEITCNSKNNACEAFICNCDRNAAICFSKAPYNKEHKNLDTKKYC

Row | Compound | inhibition (LTB4 receptor; [3]) [%] | inhibition (LTB4 receptor; [4]) [%] | IC50 [1, 5] [nM] | IC50 [2] [nM] | IC50 [1] [nM]
1 | C=CCN(CC(=O)OCC)C(=O)/C(C)=C/c1ccc(C(=O)Oc2ccc(C(=N)N)cc2)cc1 [Compound 1] | 91.5 |  |  |  | 
2 | C=CCN(CC(=O)OCC)C(=O)COc1ccc(C(=O)Oc2ccc(C(=N)N)cc2)cc1 [Compound 2] |  | 79.7 | 190 |  | 
3 | CCOC(=O)CC[C@H](NC(=O)/C=C(\C)c1ccc(C(=O)Oc2ccc(C(=N)N)cc2)cc1)C(=O)OCC [Compound 4] | 63.7 |  |  |  | 
4 | CCOP(=O)(CCCc1ccccc1)Cc1ccc(C(=O)Oc2ccc(C(=N)N)cc2)cc1 (stereo not shown) [Compound 4] |  | 73.1 | 160 | 41000 | 
5 | N=C(N)c1ccc(OC(=O)c2ccc(CN3CCC(c4ccccc4)CC3)cc2)cc1 [Compound 5] |  | 89.7 | 130 |  | 
6 | CCOC(=O)CN(Cc1ccccc1)Cc1ccc(C(=O)Oc2ccc(C(=N)N)cc2)cc1 [Compound 6] |  | 67.8 | 170 | 4500 | 
7 | C=CCN(CCCC(=O)OCC)C(=O)/C(C)=C/c1ccc(C(=O)Oc2ccc(C(=N)N)cc2)cc1 [Compound 14] | 96.5 |  |  |  | 
8 | CCOC(=O)CCN(CC(=O)OCC)C(=O)/C(C)=C/c1ccc(C(=O)Oc2ccc(C(=N)N)cc2)cc1 [Compound 18] | 87 |  |  |  | 
9 | C=CCN(CCCC(=O)O)C(=O)/C(C)=C/c1ccc(C(=O)Oc2ccc(C(=N)N)cc2)cc1 [Compound 20] | 83.5 |  |  |  | 
10 | C/C(=C\c1ccc(C(=O)Oc2ccc(C(=N)N)cc2)cc1)C(=O)N(CC(=O)O)Cc1ccccc1 [Compound 21] | 90.8 |  |  |  | 
11 | COCCCN(C(=O)/C(C)=C/c1ccc(C(=O)Oc2ccc(C(=N)N)cc2)cc1)C(C(=O)O)C(=O)O [Compound 24] | 61.2 |  |  |  | 
12 | N=C(N)C1=Cc2ccc(OC(=O)c3ccc(C(=O)N(Cc4ccccc4)c4ccccc4)cc3)cc2CC1 [Example 2(a)] |  | 92 | 400 | 2600 | 
13 | C/C(=C\c1ccc(C(=O)Oc2ccc(C(=N)N)cc2)cc1)C(=O)N(CCC(=O)O)C1CCCCC1 [Example 2(aa)] |  | 94.4 |  |  | 
14 | N=C(N)C1=Cc2ccc(OC(=O)c3ccc(C(=O)N(CC(=O)OCc4ccccc4)c4ccccc4)cc3)cc2CC1 [Example 2(b)] |  | 97.9 | 560 | 3800 | 
15 | CCOC(=O)CN(CCOC)C(=O)/C(C)=C/c1ccc(C(=O)Oc2ccc(C(=N)N)cc2)cc1 [Example 2(bb)] |  | 87.3 |  |  | 
16 | CCOC(=O)CN(C(=O)c1ccc(C(=O)Oc2ccc3c(c2)CCC(C(=N)N)=C3)cc1)c1ccccc1 [Example 2(c)] |  | 103 | 260 | 8100 | 
17 | C/C(=C\c1ccc(C(=O)Oc2ccc(C(=N)N)cc2)cc1)C(=O)N(CC(=O)O)CC1CCCO1 (stereo not shown) [Example 2(cc)] |  | 76.7 |  |  | 
18 | CCOC(=O)CN(C(=O)c1ccc(C(=O)Oc2ccc(/C=C/C(=N)N)cc2)cc1)c1ccccc1 [Example 2(d)] |  | 99.3 | 140 | 8700 | 
19 | C/C(=C\c1ccc(C(=O)Oc2ccc(C(=N)N)cc2)cc1)C(=O)N(CC(=O)O)CC1CCNCC1 [Example 2(dd)] |  | 50.8 |  |  | 
20 | CCOC(=O)[C@H](COC(=O)c1ccccc1)NC(=O)/C(C)=C/c1ccc(C(=O)Oc2ccc(C(=N)N)cc2)cc1 [Example 2(e)] |  | 94.5 | 340 | 8500 | 
21 | C=CCN(CC(=O)O)C(=O)/C(C)=C/c1ccc(C(=O)Nc2ccc(C(=N)N)cc2)cc1 [Example 2(ee)] |  | 65.3 |  |  | 

Row | Compound | inhibition (LTB4 receptor; [3]) [%] | inhibition (LTB4 receptor; [4]) [%] | IC50 [1, 5] [nM] | IC50 [2] [nM] | IC50 [1] [nM]
22 | CCOC(=O)CC[C@H](NC(=O)c1ccc(/C=C/C(=O)Oc2ccc(C(=N)N)cc2)cc1)C(=O)OCC [Example 2(f)] |  | 91.8 | 100 | 70000 | 
23 | COc1cc(C(=N)N)ccc1OC(=O)c1ccc(C(=O)N(CCCc2ccccc2)C(Cc2ccccc2)Cc2ccccc2)cc1 [Example 2(ff)] |  | 82.4 |  |  | 
24 | CCOC(=O)CC[C@H](NC(=O)c1ccc(/C=C(\C)C(=O)Oc2ccc(C(=N)N)cc2)cc1)C(=O)OCC [Example 2(g)] |  | 89.6 | 160 | 53000 | 
25 | CCOC(=O)/C=C/CC(NC(=O)/C(C)=C/c1ccc(C(=O)Oc2ccc(C(=N)N)cc2)cc1)(C(=O)OCC)C(=O)OCC [Example 2(h)] |  | 85.4 | 150 | 11000 | 
26 | C=CCN(CC(=O)OCC)C(=O)c1ccc(C(=O)Oc2ccc(/C=C/C(=N)N)cc2)cc1 [Example 2(i)] |  | 69.6 | 140 | 59000 | 
27 | CCOC(=O)CC[C@H](NC(=O)COc1ccc(C(=O)Oc2ccc(C(=N)N)cc2)cc1)C(=O)OCC [Example 2(j)] |  | 55.4 | 120 |  | 
28 | CCOC(=O)CC(NC(=O)/C(C)=C/c1ccc(C(=O)Oc2ccc(C(=N)N)cc2)cc1)(C(=O)OCC)C(=O)OCC [Example 2(k)] |  | 97.7 | 100 | 20000 | 
29 | C=CCN(CC(=O)OCC)C(=O)c1ccc(/C=C(\C)C(=O)Oc2ccc(C(=N)N)cc2)cc1 [Example 2(l)] |  | 81 | 120 | 94000 | 
30 | CCOC(=O)CC[C@H](NC(=O)/C=C/C=C/c1ccc(C(=O)Oc2ccc(C(=N)N)cc2)cc1)C(=O)OCC [Example 2(m)] |  | 89.2 | 170 | 18000 | 
31 | C=CCN(CC(=O)OCC)C(=O)/C=C/C=C/c1ccc(C(=O)Oc2ccc(C(=N)N)cc2)cc1 [Example 2(n)] |  | 82.8 | 160 | 10000 | 
32 | C=CCN(CC(=O)NCCN(C)C)C(=O)/C(C)=C/c1ccc(C(=O)Oc2ccc(C(=N)N)cc2)cc1 [Example 2(t)] |  | 51.5 |  |  | 
33 | C=CCN(CC(=O)OCCN(C)C)C(=O)/C(C)=C/c1ccc(C(=O)Oc2ccc(C(=N)N)cc2)cc1 [Example 2(u)] |  | 67.6 |  |  | 
34 | C=CCN(CC(=O)Oc1ccc(C(=N)N)cc1)C(=O)/C(C)=C/c1ccc(C(=O)Oc2ccc(C(=N)N)cc2)cc1 [Example 2(v)] |  | 92 |  |  | 
35 | C=CCN(CC(=O)NC(C(=O)OCC)C(=O)OCC)C(=O)/C(C)=C/c1ccc(C(=O)Oc2ccc(C(=N)N)cc2)cc1 [Example 2(w)] |  | 76.7 |  |  | 
36 | C=CCN(CC=C)C(=O)CN(CC=C)C(=O)/C(C)=C/c1ccc(C(=O)Oc2ccc(C(=N)N)cc2)cc1 [Example 2(x)] |  | 94.1 |  |  | 
37 | CCOC(=O)CN(C(=O)/C(C)=C/c1ccc(C(=O)Oc2ccc(C(=N)N)cc2)cc1)[C@@H](CC(C)C)C(=O)OCC [Example 2(y)] |  | 85.5 |  |  | 
38 | CCOC(=O)CCN(CCC(C)C)C(=O)/C(C)=C/c1ccc(C(=O)Oc2ccc(C(=N)N)cc2)cc1 [Example 2(z)] |  | 92.8 |  |  | 
39 | CCOP(=O)(/C=C/c1ccc(C(=O)Oc2ccc(C(=N)N)cc2)cc1)OCC [Example 4(a)] |  | 52 |  |  | 140
40 | N=C(N)c1ccc(OC(=O)c2ccc(Cn3ccnc3-c3ccccc3)cc2)cc1 [Example 5(a)] |  | 62.5 | 150 |  | 
41 | CCOC(=O)c1cc2ccccc2n1Cc1ccc(C(=O)Oc2ccc(C(=N)N)cc2)cc1 [Example 5(b)] |  | 90.2 |  |  | 
